From patent publication US20230242843A1, “GREEN SOLVENT, LAUNDRY COMPOSITION COMPRISING SAME, AND WASHING MACHINE” (LG HOUSEHOLD & HEALTH CARE LTD., priority 2020, published 2023) come the findings set out here.

For orientation: logP means a log measure of how a compound divides between an organic and an aqueous phase. Higher therefore signals a more lipophilic compound.

Data set [1] can be described thus: log P (octanol-water fractionation coefficient). The note with it: for logP: octanol/water.
Data set [2] is described as follows: Composition identification of the solvent after 30 times of washing with solvent reuse. It counts as physicochemical. To be noted: for Content in solvent collected in the solvent storage tank after final washing: initial 96.0 wt %. As to the method: The washing machines according to Examples and Comparative Examples according to the present disclosure were prepared, and washing was performed under the same conditions. The same type of fibers was put into each washing machine, and a composition including a compound according to the Chemical Formula 1 (wherein R1 and R2 are alkyl having 1 carbon atom, and R3 is hydrogen) was used as a laundry solvent.
At the first washing, the solvent was supplied, the washing was performed for 15 minutes, the solvent was collected while undergoing a drying process, another fiber was put into the washing machine, and the collected solvent was re-supplied for washing. 30 times of washing in total were performed in the same way, without replacement of the solvent storage tank or cartridge during the washing process.

The compound `Cc1cc(O)c(C)c(O)c1C(=O)O` [2,4-Dihydroxy-3,6-dimethylbenzoic acid] came in with a logP in data set [1] of 2.19. On to `CC(C)=CCC/C(C)=C/CO` [Geraniol], for which the logP in data set [1] was 3.47. Turning to `CC1(C)OCC(CO)O1` (stereo not drawn) [Chemical Formula 1, solketal], in data set [2] (30 washings, conventional washing machine (Comparative Example 2-1)), the “Amount decomposed into acetone and glycerol” value is on record as “approximately 30 wt %”. Also, the “Content in solvent collected in the solvent storage tank after final washing” value in data set [2] (30 washings, washing machine of Comparative Example 2-1 (conventional)) is on record as 69.0 wt %; in data set [2] (30 washings, washing machine of Example 2-1), 91.4 wt %; in data set [2] (30 washings, washing machine of Example 2-2), 92.7 wt %; in data set [2] (30 washings, washing machine of Example 2-3) it was 94.1 wt %; in data set [2] (30 washings, washing machine of Example 2-4), 94.9 wt %; in data set [2] (30 washings, washing machine of Example 2-5) it was 95.5 wt %. Further, in data set [2] (after 30 times of washing, washing machine according to an example embodiment), the Amount decomposed result is listed as “less than 10 wt %”. The “Log P” value in data set [1] (octanol-water) is given as “approximately 1.07”.

For `CCCCCCC(C=O)=Cc1ccccc1` [Alpha-hexyl cinnamaldehyde, reference compound], in data set [1], the logP stood at 4.68. The same measure, in the same setting: under `COc1cc(C=O)ccc1O` [Vanillin] stands 0.71. For `OCCO` [Ethylene glycol, reference compound], the logP in data set [1] is -1.93. As to `Oc1cccc(O)c1` [Resorcinol], in data set [1], the logP worked out at 1.13. Compound `CCCCOCCOCCO` [2-(2-butoxyethoxy)ethanol] showed a logP in data set [1] of 0.65. `Cc1nc(N(C)C)nc(O)c1C` [2-(dimethylamino)-5,6-dimethylpyrimidin-4-ol] came in with a logP in data set [1] of 1.63. In data set [1], `CCOC(=O)c1ccccc1C(=O)O` [2-(ethoxycarbonyl)benzoic acid] yielded a logP of 1.8.
